In ChEMBL document CHEMBL1134026, “Synthesis and evaluation of novel amidate prodrugs of PMEA and PMPA” (Bioorg Med Chem Lett, 2001):

Experiments:
CCRF-CEM [1] = experiment: In vitro antiviral activity against HIV-2 in CEM cells; format: functional, cell-based; conditions: Homo sapiens
MT4 [2] = experiment: In vitro antiviral activity against HIV-1 in MT-4 cells; format: functional, cell-based; conditions: Homo sapiens
MT4 [3] = experiment: In vitro antiviral activity against HIV-2 in MT-4 cells; format: functional, cell-based; conditions: Homo sapiens
[4] = In vitro cytotoxic concentration against MT-4 cells; format: cell-based, MT4; conditions: human
CCRF-CEM [5] = experiment: In vitro antiviral activity against HIV-1 in CEM cells; format: functional, cell-based; conditions: Homo sapiens
[6] = In vitro cytotoxic concentration against CEM cells; format: cell-based, CCRF-CEM; conditions: human

Compound	EC50 (CCRF-CEM [1]) [µM]	EC50 (MT4 [2]) [µM]	EC50 (MT4 [3]) [µM]	CC50 [4] [µM]	EC50 (CCRF-CEM [5]) [µM]	CC50 [6] [µM]
COC(=O)[C@@H](C)NP(=O)(CO[C@H](C)Cn1cnc2c(N)ncnc21)Oc1ccccc1 (stereo partly specified)	0.09	0.029	0.026	71.4	0.053	27
COC(=O)CNP(=O)(CO[C@H](C)Cn1cnc2c(N)ncnc21)Oc1ccccc1 (stereo partly specified)	0.31	0.58	0.15	102	0.23	88.5
COC(=O)CNP(=O)(COCCn1cnc2c(N)ncnc21)Oc1ccccc1 (stereo unspecified)	4.5	3.6	4.8	120	5.6	80
COC(=O)[C@H](C)NP(=O)(CO[C@H](C)Cn1cnc2c(N)ncnc21)Oc1ccccc1 (stereo partly specified)	0.38	0.99	0.65	213	0.5	125
COC(=O)[C@H](C)NP(=O)(COCCn1cnc2c(N)ncnc21)Oc1ccccc1 (stereo partly specified)	6	15	7.2	120	5	67
COC(=O)[C@@H](Cc1ccccc1)NP(=O)(CO[C@H](C)Cn1cnc2c(N)ncnc21)Oc1ccc(Cl)cc1 (stereo partly specified)	0.06	0.04	0.07	64	0.07	26
Nc1ncnc2c1ncn2CCOCP(=O)(O)O [ADEFOVIR]	10	7	7.5	144	7	69
COC(=O)[C@@H](C)NP(=O)(CO[C@H](C)Cn1cnc2c(N)ncnc21)Oc1ccc(Cl)cc1 (stereo partly specified)	0.12	0.15	0.26	57	0.2	106
C[C@H](Cn1cnc2c(N)ncnc21)OCP(=O)(O)O [TENOFOVIR ANHYDROUS]	3.67	2.3	1.4	197	3.67	> 250
C[C@H](Cn1cnc2c(N)ncnc21)OCP(=O)(Oc1ccccc1)Oc1ccccc1	4	6.2	4.9	> 250	4	> 250
COC(=O)[C@@H](C)NP(=O)(COCCn1cnc2c(N)ncnc21)Oc1ccccc1 (stereo partly specified)	0.2	0.23	0.15	5.1	0.12	3.7
